Measurements reported in PubChem BioAssay AID1919000 (Molecular Pharmacology Branch, DTP, NCI, 2023).
Several values for one entry are separate records, joined by “and”; a condition that tells them apart may be missing. Equal entries are not always repeated. Each block holds one compound with its values, some of them ahead of it.

System: 653999-131-R-J2-PDC complex spheroids, growth % test/control
Test: Anticancer human tumor 653999-131-R-J2-PDC patient-derived lung adenocarcinoma cell line growth inhibition [AhR]
Settings: for viability, T/C: stronger effect = lower value
How it was run: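 Agents were dosed in half-log steps down from roughly clinical Cmax, or from 10 microM where Cmax was unknown, alone and with AhR antagonists. Read-out: percent test/control growth of tumor spheroids containing HUVEC and MSC stromal cells.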

[1] = curve of first compound, second compound 0.1 µM
[2] = curve of first compound, second compound 0.316 µM
[3] = curve of first compound, second compound 1 µM
[4] = curve of first compound, second compound 3.16 µM
[5] = curve of first compound, second compound 10 µM
[6] = second compound 0.1 µM, first compound 0.0316 µM
[7] = second compound 0.1 µM, first compound 0.1 µM
[8] = second compound 0.316 µM, first compound 0.0316 µM
[9] = second compound 0.316 µM, first compound 0.1 µM
[10] = second compound 1 µM, first compound 0.0316 µM
[11] = second compound 1 µM, first compound 0.1 µM
[12] = second compound 3.16 µM, first compound 0.0316 µM
[13] = second compound 3.16 µM, first compound 0.1 µM
[14] = second compound 10 µM, first compound 0.0316 µM
[15] = second compound 10 µM, first compound 0.1 µM
[16] = second compound 0.1 µM, first compound 0.00949 µM
[17] = second compound 0.1 µM, first compound 0.03 µM
[18] = second compound 0.1 µM, first compound 0.0949 µM
[19] = second compound 0.1 µM, first compound 0.3 µM
[20] = second compound 0.316 µM, first compound 0.00949 µM
[21] = second compound 0.316 µM, first compound 0.03 µM
[22] = second compound 0.316 µM, first compound 0.0949 µM
[23] = second compound 0.316 µM, first compound 0.3 µM
[24] = second compound 1 µM, first compound 0.00949 µM
[25] = second compound 1 µM, first compound 0.03 µM
[26] = second compound 1 µM, first compound 0.0949 µM
[27] = second compound 1 µM, first compound 0.3 µM
[28] = second compound 3.16 µM, first compound 0.00949 µM
[29] = second compound 3.16 µM, first compound 0.03 µM
[30] = second compound 3.16 µM, first compound 0.0949 µM
[31] = second compound 3.16 µM, first compound 0.3 µM
[32] = second compound 10 µM, first compound 0.00949 µM
[33] = second compound 10 µM, first compound 0.03 µM
[34] = second compound 10 µM, first compound 0.0949 µM
[35] = second compound 10 µM, first compound 0.3 µM
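Further: spheroids exposed to agents for seven days.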
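Wherever viability, T/C is given: 100% = DMSO vehicle control viability.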

IC50 [1]: > 10000 nM | IC50 [2]: > 10000 nM | IC50 [3]: > 10000 nM | IC50 [4]: > 10000 nM | IC50 [5]: > 10000 nM
Structure (SMILES): CC1(C)CCC(CN2CCN(c3ccc(C(=O)NS(=O)(=O)c4ccc(NCC5CCOCC5)c([N+](=O)[O-])c4)c(Oc4cnc5[nH]ccc5c4)c3)CC2)=C(c2ccc(Cl)cc2)C1 + Cc1cncc(-c2nc(NCCc3c[nH]c4ccccc34)c3ncn(C(C)C)c3n2)c1
viability, T/C [6]: 92.8% | viability, T/C [7]: 93.8% | viability, T/C (second compound 0.1 µM, first compound 0.316 µM): 89% | viability, T/C (second compound 0.1 µM, first compound 1 µM): 101% | viability, T/C (second compound 0.1 µM, first compound 3.16 µM): 94.2% | viability, T/C (second compound 0.1 µM, first compound 10 µM): 85.8% | viability, T/C [8]: 97.8% | viability, T/C [9]: 90.7% | viability, T/C (second compound 0.316 µM, first compound 0.316 µM): 94.8% | viability, T/C (second compound 0.316 µM, first compound 1 µM): 97.8% | viability, T/C (second compound 0.316 µM, first compound 3.16 µM): 116% | viability, T/C (second compound 0.316 µM, first compound 10 µM): 83% | viability, T/C [10]: 103% | viability, T/C [11]: 108% | viability, T/C (second compound 1 µM, first compound 0.316 µM): 109% | viability, T/C (second compound 1 µM, first compound 1 µM): 102% | viability, T/C (second compound 1 µM, first compound 3.16 µM): 116% | viability, T/C (second compound 1 µM, first compound 10 µM): 105% | viability, T/C [12]: 105% | viability, T/C [13]: 105% | viability, T/C (second compound 3.16 µM, first compound 0.316 µM): 109% | viability, T/C (second compound 3.16 µM, first compound 1 µM): 115% | viability, T/C (second compound 3.16 µM, first compound 3.16 µM): 104% | viability, T/C (second compound 3.16 µM, first compound 10 µM): 91.8% | viability, T/C [14]: 59.4% | viability, T/C [15]: 61.9% | viability, T/C (second compound 10 µM, first compound 0.316 µM): 59.5% | viability, T/C (second compound 10 µM, first compound 1 µM): 71.3% | viability, T/C (second compound 10 µM, first compound 3.16 µM): 74.1% | viability, T/C (second compound 10 µM, first compound 10 µM): 62.5%

IC50 [1]: > 3000 nM | IC50 [2]: > 3000 nM | IC50 [3]: > 3000 nM | IC50 [4]: > 3000 nM | IC50 [5]: 165 nM
Structure (SMILES): CCN(c1cc(-c2ccc(CN3CCOCC3)cc2)cc(C(=O)NCc2c(C)cc(C)[nH]c2=O)c1C)C1CCOCC1 + Cc1cncc(-c2nc(NCCc3c[nH]c4ccccc34)c3ncn(C(C)C)c3n2)c1
viability, T/C [16]: 96.7% | viability, T/C [17]: 105% | viability, T/C [18]: 104% | viability, T/C [19]: 94.6% | viability, T/C (second compound 0.1 µM, first compound 0.949 µM): 97.9% | viability, T/C (second compound 0.1 µM, first compound 3 µM): 102% | viability, T/C [20]: 121% | viability, T/C [21]: 122% | viability, T/C [22]: 106% | viability, T/C [23]: 99.8% | viability, T/C (second compound 0.316 µM, first compound 0.949 µM): 104% | viability, T/C (second compound 0.316 µM, first compound 3 µM): 103% | viability, T/C [24]: 99.7% | viability, T/C [25]: 116% | viability, T/C [26]: 108% | viability, T/C [27]: 114% | viability, T/C (second compound 1 µM, first compound 0.949 µM): 104% | viability, T/C (second compound 1 µM, first compound 3 µM): 100% | viability, T/C [28]: 105% | viability, T/C [29]: 116% | viability, T/C [30]: 104% | viability, T/C [31]: 96.2% | viability, T/C (second compound 3.16 µM, first compound 0.949 µM): 98.8% | viability, T/C (second compound 3.16 µM, first compound 3 µM): 113% | viability, T/C [32]: 62% | viability, T/C [33]: 53.3% | viability, T/C [34]: 51.6% | viability, T/C [35]: 50.6% | viability, T/C (second compound 10 µM, first compound 0.949 µM): 37.8% | viability, T/C (second compound 10 µM, first compound 3 µM): 28.6%

IC50 (curve of compound): 3450 nM and 4200 nM and 3560 nM
Structure (SMILES): O=C(C=Cc1cccc(S(=O)(=O)Nc2ccccc2)c1)NO
viability, T/C (compound 0.0316 µM): 91.5% and 94.1% and 91.6% | viability, T/C (compound 0.1 µM): 92.4% and 95.9% and 101% | viability, T/C (compound 0.316 µM): 82.2% and 91.9% and 96.7% | viability, T/C (compound 1 µM): 77% and 86.9% and 80.2% | viability, T/C (compound 3.16 µM): 52.3% and 62.5% and 55.9% | viability, T/C (compound 10 µM): 14.8% and 11.4% and 7.09%

IC50 (curve of compound): 3840 nM and 3930 nM and 4020 nM
Structure (SMILES): Nc1ccccc1NC(=O)c1ccc(CNC(=O)OCc2cccnc2)cc1
viability, T/C (compound 0.0316 µM): 98% and 89.6% and 98.3% | viability, T/C (compound 0.1 µM): 102% and 87.1% and 81% | viability, T/C (compound 0.316 µM): 83% and 80.2% and 77.3% | viability, T/C (compound 1 µM): 81% and 70.5% and 65.6% | viability, T/C (compound 3.16 µM): 57.5% and 63.4% and 69.3% | viability, T/C (compound 10 µM): 16% and 12.8% and 13.9%

IC50 (curve of compound): 66.2 nM and 65.3 nM and 132 nM
Structure (SMILES): COc1cccc2c1C(=O)c1c(O)c3c(c(O)c1C2=O)CC(O)(C(=O)CO)CC3OC1CC(N)C(O)C(C)O1 (stereo unspecified)
viability, T/C (compound 0.0316 µM): 62.4% and 56% and 66.2% | viability, T/C (compound 0.1 µM): 40.9% and 45.6% and 56.4% | viability, T/C (compound 0.316 µM): 28.3% and 26.5% and 28.1% | viability, T/C (compound 1 µM): 7.89% and 10.5% and 10.6% | viability, T/C (compound 3.16 µM): 3.94% and 7.29% and 3.85% | viability, T/C (compound 10 µM): 10.6% and 20.5% and 19.3%

IC50 [1]: 7.43 nM | IC50 [2]: 5.82 nM | IC50 [3]: 6.93 nM | IC50 [4]: 5.13 nM | IC50 [5]: 4.97 nM
Structure (SMILES): CCc1c2c(nc3ccc(O)cc13)-c1cc3c(c(=O)n1C2)COC(=O)[C@]3(O)CC + CC(CO)NC(=O)c1cc(-c2ccc(Cl)cc2)nn(-c2cnn(C)c2)c1=O
viability, T/C (second compound 0.1 µM, first compound 0.000949 µM): 68% | viability, T/C (second compound 0.1 µM, first compound 0.003 µM): 59% | viability, T/C [16]: 48.4% | viability, T/C [17]: 32% | viability, T/C [18]: 21.5% | viability, T/C [19]: 12.7% | viability, T/C (second compound 0.316 µM, first compound 0.000949 µM): 64.1% | viability, T/C (second compound 0.316 µM, first compound 0.003 µM): 58.8% | viability, T/C [20]: 42.3% | viability, T/C [21]: 34% | viability, T/C [22]: 19.4% | viability, T/C [23]: 11.4% | viability, T/C (second compound 1 µM, first compound 0.000949 µM): 67% | viability, T/C (second compound 1 µM, first compound 0.003 µM): 60% | viability, T/C [24]: 45.4% | viability, T/C [25]: 33.7% | viability, T/C [26]: 21.2% | viability, T/C [27]: 13.8% | viability, T/C (second compound 3.16 µM, first compound 0.000949 µM): 50.2% | viability, T/C (second compound 3.16 µM, first compound 0.003 µM): 50.8% | viability, T/C [28]: 49.9% | viability, T/C [29]: 29.1% | viability, T/C [30]: 22.1% | viability, T/C [31]: 15.8% | viability, T/C (second compound 10 µM, first compound 0.000949 µM): 63.2% | viability, T/C (second compound 10 µM, first compound 0.003 µM): 55.8% | viability, T/C [32]: 42.9% | viability, T/C [33]: 30% | viability, T/C [34]: 21.8% | viability, T/C [35]: 16.1%

IC50 [1]: > 100 nM | IC50 [2]: > 100 nM | IC50 [3]: > 100 nM | IC50 [4]: > 100 nM | IC50 [5]: > 100 nM
Structure (SMILES): Cn1ncnc1C1c2n[nH]c(=O)c3cc(F)cc(c23)NC1c1ccc(F)cc1 (stereo unspecified) + Cc1cncc(-c2nc(NCCc3c[nH]c4ccccc34)c3ncn(C(C)C)c3n2)c1
viability, T/C (second compound 0.1 µM, first compound 0.000316 µM): 96% | viability, T/C (second compound 0.1 µM, first compound 0.001 µM): 96.2% | viability, T/C (second compound 0.1 µM, first compound 0.00316 µM): 97.4% | viability, T/C (second compound 0.1 µM, first compound 0.01 µM): 84.8% | viability, T/C [6]: 86.6% | viability, T/C [7]: 85.6% | viability, T/C (second compound 0.316 µM, first compound 0.000316 µM): 97.9% | viability, T/C (second compound 0.316 µM, first compound 0.001 µM): 92.5% | viability, T/C (second compound 0.316 µM, first compound 0.00316 µM): 94.3% | viability, T/C (second compound 0.316 µM, first compound 0.01 µM): 90.6% | viability, T/C [8]: 85.6% | viability, T/C [9]: 86.5% | viability, T/C (second compound 1 µM, first compound 0.000316 µM): 104% | viability, T/C (second compound 1 µM, first compound 0.001 µM): 113% | viability, T/C (second compound 1 µM, first compound 0.00316 µM): 104% | viability, T/C (second compound 1 µM, first compound 0.01 µM): 101% | viability, T/C [10]: 103% | viability, T/C [11]: 94% | viability, T/C (second compound 3.16 µM, first compound 0.000316 µM): 122% | viability, T/C (second compound 3.16 µM, first compound 0.001 µM): 99.5% | viability, T/C (second compound 3.16 µM, first compound 0.00316 µM): 104% | viability, T/C (second compound 3.16 µM, first compound 0.01 µM): 93.7% | viability, T/C [12]: 100% | viability, T/C [13]: 98.2% | viability, T/C (second compound 10 µM, first compound 0.000316 µM): 52.4% | viability, T/C (second compound 10 µM, first compound 0.001 µM): 55.5% | viability, T/C (second compound 10 µM, first compound 0.00316 µM): 62% | viability, T/C (second compound 10 µM, first compound 0.01 µM): 56% | viability, T/C [14]: 47.5% | viability, T/C [15]: 58.3%
